Test results from US7390782B2, “Methods and products related to metabolic interactions in disease” (University of Vermont and State Agricultural College, priority 1998, dated 2008).
Entries after “also recorded” stand apart in the source; their conditions may differ.

How the values were obtained:
L1210/DDP [1] = test: Fas expression by flow cytometry (FITC anti-Fas over isotype); format: cell-based; conditions: for Fas expression: L1210 DDP, in the presence of staurosporine or ADRIAMYCIN
Procedure: (§1) 3. Fas Expression Increases as a Function of Glucose: We investigated the effect of increasing concentrations of glucoseon cell surface Fas expression. L1210 and L1210/DDP cells were cultured in glucose free RPMI media or in media supplemented with insulin and glucose for 16 hours. Intra- and extracellular Fas expression was determined by labeling the cells with FITC-conjugated anti-Fas antibodies (Pharmingen), or FITC-conjugated isotype control, then subtracting the fluorescence intensity of the isotype staining from Fas staining for each treatment group.
(§2) L1210, upper panels, and L1210/DDP cells, lower panels, were cultured in glucose free RPMI media, filled circles, or in media supplemented with insulin and glucose, squares, for 16 hours. Intra- and extracellular Fas expression was determined by labeling the cells with FITC-conjugated anti-Fas antibodies, or FITC-conjugated isotype control, then subtracting the fluorescence intensity of the isotype staining from Fas staining for each treatment group (FIG. 2). Results are presented as geometric mean fluorescence over background.
(§3) 4. […] We treated L1210 or L1210 DDP cells with the staurosporine, which inhibits protein kinase C and increases mitochondrial membrane potential, or an anti-cancer agent to which both cells are sensitive, ADRIAMYCIN™. Fas expression was increased or induced on both L1210 and L1210 DDP, respectively, in the presence of staurosporine or ADRIAMYCIN™ (FIG. 3). The L1210 DDP changed morphologically and began to divide rapidly, changes which appeared to correspond with a reversion back to the phenotype of the L1210 cells.
(§4) FIG. 23 is a graph depicting Sodium Acetate as a mitochondrial modifying agent. L1210 or L1210DDP cells were cultured in the presence of graded concentrations of sodium acetate in the medium. Cells were stained with Jo2.2, a fluorescein conjugated anti-Fas antibody, or an isotype control. Cell surface staining was measured flow cytometrically. The Percentage of mean fluorescence intensity over the isotype control was plotted.

L1210 [2] = test: as above; format: cell-based; conditions: for Fas expression: in the presence of staurosporine or ADRIAMYCIN
Procedure: as §1, §2, §3, §4

[3] = test system: resting B-cells from (NZB×NZW)F1 and (NZB×SWR)F1 mice; test: cAMP in resting B-cells from autoimmune strains; format: cell-based
Procedure: Following the protocols as described in Newell, M K, et al. (Proc Natl Acad Sci, USA, 1993, 90:10459-10463) for resting B lymphocytes from normal mice, we isolated resting B-cells from spleens of (NZB×NZW)F1 and (NZB×SWR)F1 mice by Percoll gradient separation and treated the cells with antibodies to class II molecules, FIG. 12. Experiments utilized mice younger than 3 months of age. […] Resting (1.079<r<1.085) B-cells from normal; […], animals were treated for 10 min at 37° C. with stimuli indicated. Levels of cAMP were determined as described in FIG. 1. Means (and standard errors) from three experiments are shown for normal animals. The means from two experiments are shown for each of the F1 hybrid animals.

[4] = test system: resting B-cells from (NZB×NZW)F1 and (NZB×SWR)F1 mice; test: Apoptosis (DNA fragments) in resting B-cells from autoimmune strains; format: cell-based
Procedure: We stimulated both resting and activated B-cells from (NZB×NZW)F1 and (NZB×SWR)F1 mice with antibodies to class II molecules. Young animals, prior to the development of lupus-like autoantibody and renal disease, were used in these studies. […] Agarose gel electrophoresis of DNA fragments from high density resting B-cells (1.079<r<1.085) was carried out as described in FIG. 2. Normalized areas produced by scanning densitometry on the gels shown above for normal; (NZB×SWR)F1; or (NZB×NZW)F1, animals. […] For normal animals, the mean and standard error of four experiments are shown. For the (NZB×NZW)F1 animals, representative data from one of two experiments is shown and for (NZB×SWR)F1 animals, a single experiment is shown. Because experiments were performed on different days it is impossible to compare background levels of apoptosis between strains; however, it should be noted that there is significant variability in background levels of apoptosis, with those for the (NZB×NZW)F1 animals apparently tending to be higher than for the other strains.

L1210/DDP [5] = test: Methotrexate-induced death, flow cytometry and DNA fragment analysis; format: cell-based; conditions: 10^-8 M methotrexate, 24 hours
Procedure: (§5) Additionally, L1210 and L1210/DDP cells were treated with 10−8 M methotrexate for 24 hours. […] The forward scatter low populations took up ethidium bromide differentially. The L1210 cells took up a moderate amount. […] This latter phenotype—loss in forward scatter and membrane permeability with no “DNA laddering”—is the hall mark of oncosis.

L1210 [6] = test: as above; format: cell-based; conditions: 10^-8 M methotrexate, 24 hours
Procedure: as §5

[7] = test system: splenic lymphocytes from C57BL/6, C57BL6.lpr and C57BL.gld; test: Viability of splenic lymphocytes cultured with methotrexate; format: cell-based, mice; conditions: Fas deficient lymphocytes; 5×10^-8 M methotrexate, 18 or 32 hours
Procedure: 8. Fas Deficient Lymphocytes are also drug resistant to methotrexate: We isolated splenic lymphocytes from aged-matched wild type C57BL/6 mice and C57BL6.lpr and C57BL.gld. Splenocytes from C57BL/6 lpr or gld animals were isolated, red cells depleted, and single cell suspensions prepared. Cells were cultured in the absence or presence of 5×10^−8 M methotrexate for 18 or 32 hours. Cells were harvested and viability was determined by flow cytometric analysis and confirmed with trypan blue exclusion.

L1210DDP = conditions: FasL bearing cells over mock-transfectants
Description: (§6) Cells cultured with acetate were loaded with 51 Cr and plated onto FasL bearing or mock transfected fibroblast to determine sensitivity to Fas-induced cell death. Results are reported as percent chromium release from cells in the presence of FasL bearing cells over mock-transfectants.

L1210 [8] = conditions: FasL bearing cells over mock-transfectants
Description: as §6

B16 melanoma cells [9] = conditions: increasing concentrations
Procedure: B16 cells were cultured in the in the presence of different concentrations of sodium acetate and Fas expression was measured.

B16 melanoma cells [10] = conditions: increasing concentrations; remark: listed apart in the source
Procedure: FIG. 18 depicts the rates of glucose utilization and oxidation in B16 melanoma cells. Again cells were cultured in the presence of varying concentration of sodium acetate.

v-Crk cells = test: Cytofluorometric analysis of Fas, B7.1, B7.2 cell surface expression; format: cell-based, Rat
Procedure: (§7) Cell Culture: Rat pheochromocytoma cell lines, including PC12, Trk and v-Crk cells were a kind gift from Dr. Raymond Birge. They were maintained in complete RPMI 1640 (GIBCO) supplemented with 7% heat inactivated fetal calf serum and 3% heat inactivated horse serum at 37° C. in a humidified incubator with 5% CO2. The PC12 transfectants were generated as described previously (Glassman et al., 1997, Hempstead et al., 1994). Cells were plated in 6 well culture plates at a concentration ranging from 2-8×10^6 cells/well, according to the cell type's growth kinetics, and 5 ml complete medium. NGF-7S from mouse submaxillary glands (Sigma Chemical Co.) or EGF, kindly provided by Dr. Raymond Birge, was added at a concentration of 50 ng/ml culture medium and the cells were incubated for 24 or 48 hours.
(§8) Cytofluorometric Analysis: Cells were harvested after a 10 minute incubation period on ice in order to diminish their adherence to the plastic culture flask. They were spun at 1210 rpm, for 7 minutes, resuspended in medium and counted after trypan blue staining. Equal numbers of cells were placed in 12×75 mm flow tubes (range: 0.1-1×10^6 cells/tube), washed in PBS and 5% FBS and stained at 4° C. The following stains were used: a) fluorescein isothiocyanate (FITC) hamster IgG isotype standard, b) FITC anti-mouse Fas, c) FITC anti-mouse CD80 (B7.1), d) phycoerythrin (PE) mouse IgG2b K isotype standard and e) PE anti-mouse CD86 (B7.2). All antibodies were obtained from Pharmingen.
(§9) After incubation on ice for 20 minutes, cells were washed, resuspended in PBS and 5% FCS and analyzed by flow cytometry (Becton Dickinson). Histogram plots were derived from dot plots gated on the live cell population according to the forward versus side scatter ratio (Cell Quest Program). The absolute Fas, B7.1 and B7.2 values presented on the graphs were obtained by subtracting the […]. Values were considered subjectively positive (+) if the difference was statistically significant (p<0.001) according to the applied Kilmogorov-Smirnov statistical analysis.

PC12 cells = test: as above; format: cell-based, Rat; conditions: 50 ng/ml
Procedure: as §7, §8, §9

TrkA cells = test: as above; format: cell-based, Rat; conditions: Trk cells, 50 ng/ml
Procedure: as §7, §8, §9

COc1cccc2c1C(=O)c1c(O)c3c(c(O)c1C2=O)C[C@@](O)(C(=O)CO)C[C@@H]3O[C@H]1C[C@H](N)[C@H](O)[C@H](C)O1 [ADRIAMYCIN™]
Fas expression (L1210/DDP [1]): induced
Fas expression (L1210 [2]): increased

CC(C)NCC(O)c1ccc(O)c(O)c1 (stereo not shown) [isoproterenol]
intracellular cAMP response [3]: normal
apoptosis ([4]; (NZB×NZW)F1 B-cells): minimal evidence of apoptosis
apoptosis ([4]; B-cells from (NZB×SWR)F1 mice): intermediate level

CN(Cc1cnc2nc(N)nc(N)c2n1)c1ccc(C(=O)N[C@@H](CCC(=O)O)C(=O)O)cc1 [methotrexate]
DNA fragments (laddering) (L1210/DDP [5]): did not
DNA fragments (laddering) (L1210 [6]): produced a ladder of nucleosome sized fragments indicative of apoptosis
susceptibility to methotrexate-induced apoptosis [7]: decreased susceptibility

CC(=O)[O-].[Na+] [sodium acetate]
susceptibility to Fas-dependent cell death (percent chromium release) (L1210DDP): results in susceptibility to Fas-dependent cell death
susceptibility to Fas-dependent cell death (percent chromium release) (L1210 [8]): results in susceptibility to Fas-dependent cell death
levels of cell surface Fas (B16 melanoma cells [9]; non-permeabilized B16 cells): increased
levels of intracellular Fas (B16 melanoma cells [9]; permeabilized B16 cells): declined
cell surface Fas expression (L1210/DDP [1]; L1210DDP, graded concentrations of sodium acetate in the medium): increases cell surface Fas expression
cell surface Fas expression (L1210 [2]; graded concentrations of sodium acetate in the medium): increases cell surface Fas expression
glucose oxidation (B16 melanoma cells [10]): decreased
glucose utilization (B16 melanoma cells [10]): decreased

CN[C@@H]1C[C@H]2O[C@@](C)([C@@H]1OC)n1c3ccccc3c3c4c(c5c6ccccc6n2c5c31)C(=O)NC4 [staurosporine]
Fas expression and susceptibility to drug-induced apoptosis (L1210/DDP [1]; L1210 DDP cells treated with staurosporin): restores Fas expression and susceptibility to drug-induced apoptosis
Fas expression (L1210/DDP [1]): induced
Fas expression (L1210 [2]): increased

EGF: EGF, kindly provided by Dr. Raymond Birge
B7.1 cell surface expression (v-Crk cells; 50 ng/ml, 24 and 48 hours of culture): significantly increases B7.1 expression
Fas cell surface expression (v-Crk cells; 50 ng/ml, stimulation 24 hours): significantly up-regulates Fas expression; also recorded: increases three-fold
B7.2 cell surface expression (v-Crk cells; 50 ng/ml, stimulation 48 hours): significant induction
Fas cell surface expression (v-Crk cells; 50 ng/ml, stimulation 48 hours): down-regulated and abrogated
B7.2 cell surface expression (v-Crk cells; after withdrawal): again undetectable
B7.1 cell surface expression (PC12 cells; stimulation 24 hours): significantly lowers
Fas cell surface expression (PC12 cells; stimulation 24 hours): downregulates Fas expression
B7.1 cell surface expression (PC12 cells; stimulation 48 hours): reestablishes the basal values
B7.2 cell surface expression (PC12 cells; stimulation 48 hours): up-regulates B7.2 expression
Fas cell surface expression (PC12 cells; stimulation 48 hours): totally abrogates Fas expression
B7.1 cell surface expression (TrkA cells; stimulation 24 hours): lowered
Fas cell surface expression (TrkA cells; stimulation 24 hours): downregulates Fas expression
B7.1 cell surface expression (TrkA cells; stimulation 48 hours): reestablished
B7.2 cell surface expression (TrkA cells; stimulation 48 hours): most significant
Fas cell surface expression (TrkA cells; stimulation 48 hours): totally abrogates Fas expression
